According to the supplement of paper PMC11451515:

Tested on: NOMO1
Assay: cell viability relative to DMSO control; higher = less cytotoxic
Conditions: 48 h
Summary of the method: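 Leukemia cells (NOMO1 or SEM, 500 cells/well; P12-Ichikawa, 1000 cells/well) were seeded in 5 μl in 1536-well plates after at least four passages of adaptation to each medium. They received library compounds in DMSO by pin dosing, 11 threefold points from 47 μM to 0.79 nM. Luminescence with CellTiter-Glo One was read after 48 h at 37°C. Viability is stated per plate relative to DMSO wells, with cell-free wells as background.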

[1] = HPLM + 10% dialyzed FBS, 0.000781 µM
[2] = HPLM + 10% dialyzed FBS, 0.00234 µM
[3] = HPLM + 10% dialyzed FBS, 0.00702 µM
[4] = HPLM + 10% dialyzed FBS, 0.0211 µM
[5] = HPLM + 10% dialyzed FBS, 0.0632 µM
[6] = HPLM + 10% dialyzed FBS, 0.19 µM
[7] = HPLM + 10% dialyzed FBS, 0.569 µM
[8] = HPLM + 10% dialyzed FBS, 1.71 µM
[9] = HPLM + 10% dialyzed FBS, 5.12 µM
[10] = HPLM + 10% dialyzed FBS, 15.4 µM
[11] = HPLM + 10% dialyzed FBS, 46.1 µM
[12] = RPMI 5 mM glucose + 10% FBS, 0.000781 µM
[13] = RPMI 5 mM glucose + 10% FBS, 0.00234 µM
[14] = RPMI 5 mM glucose + 10% FBS, 0.00702 µM
[15] = RPMI 5 mM glucose + 10% FBS, 0.0211 µM
[16] = RPMI 5 mM glucose + 10% FBS, 0.0632 µM
[17] = RPMI 5 mM glucose + 10% FBS, 0.19 µM
[18] = RPMI 5 mM glucose + 10% FBS, 0.569 µM
[19] = RPMI 5 mM glucose + 10% FBS, 1.71 µM
[20] = RPMI 5 mM glucose + 10% FBS, 5.12 µM
[21] = RPMI 5 mM glucose + 10% FBS, 15.4 µM
[22] = RPMI 5 mM glucose + 10% FBS, 46.1 µM
[23] = RPMI 5 mM glucose + 10% dialyzed FBS, 0.000781 µM
[24] = RPMI 5 mM glucose + 10% dialyzed FBS, 0.00234 µM
[25] = RPMI 5 mM glucose + 10% dialyzed FBS, 0.00702 µM
[26] = RPMI 5 mM glucose + 10% dialyzed FBS, 0.0211 µM
[27] = RPMI 5 mM glucose + 10% dialyzed FBS, 0.0632 µM
[28] = RPMI 5 mM glucose + 10% dialyzed FBS, 0.19 µM
[29] = RPMI 5 mM glucose + 10% dialyzed FBS, 0.569 µM
[30] = RPMI 5 mM glucose + 10% dialyzed FBS, 1.71 µM
[31] = RPMI 5 mM glucose + 10% dialyzed FBS, 5.12 µM
[32] = RPMI 5 mM glucose + 10% dialyzed FBS, 15.4 µM
[33] = RPMI 5 mM glucose + 10% dialyzed FBS, 46.1 µM

Row | Structure (SMILES) | cell viability [1] | cell viability [2] | cell viability [3] | cell viability [4] | cell viability [5] | cell viability [6] | cell viability [7] | cell viability [8] | cell viability [9] | cell viability [10] | cell viability [11] | cell viability [12] | cell viability [13] | cell viability [14] | cell viability [15] | cell viability [16] | cell viability [17] | cell viability [18] | cell viability [19] | cell viability [20] | cell viability [21] | cell viability [22] | cell viability [23] | cell viability [24] | cell viability [25] | cell viability [26] | cell viability [27] | cell viability [28] | cell viability [29] | cell viability [30] | cell viability [31] | cell viability [32] | cell viability [33]
1 | NC[C@H](O)c1ccc(O)c(O)c1 | 115% | 117% | 119% | 104% | 120% | 104% | 90.7% | 85.7% | 97.7% | 86.9% | 72.4% | 96.7% | 86.8% | 112% | 95.7% | 105% | 91% | 87.3% | 91.2% | 99.2% | 97.5% | 78% | 93.2% | 90.3% | 99% | 91% | 88.1% | 85.4% | 86.6% | 93.4% | 83.3% | 88.6% | 87.7%
2 | CC(C)(Sc1cc(C(C)(C)C)c(O)c(C(C)(C)C)c1)Sc1cc(C(C)(C)C)c(O)c(C(C)(C)C)c1 | 88.5% | 92.3% | 85.6% | 105% | 108% | 90.4% | 96.2% | 94.3% | 79.1% | 103% | 91.6% | 84.4% | 92.5% | 86.2% | 91.3% | 86.4% | 98.4% | 92.8% | 84.8% | 92.7% | 93% | 84.8% | 79.7% | 88.3% | 94.6% | 83.7% | 98.9% | 105% | 95.5% | 94.5% | 81.4% | 90.2% | 94%
3 | C[C@]12CC[C@H]3[C@@H](CC[C@@]45O[C@@H]4C(O)=C(C#N)C[C@]35C)[C@@H]1CC[C@@H]2O | 102% | 111% | 118% | 112% | 123% | 111% | 110% | 116% | 97.2% | 109% | 21.2% | 111% | 119% | 117% | 127% | 117% | 119% | 128% | 118% | 117% | 117% | 30.7% | 110% | 121% | 127% | 132% | 143% | 132% | 128% | 135% | 136% | 125% | 24.3%
4 | CC[C@H](CO)Nc1nc(NCc2ccccc2)c2ncn(C(C)C)c2n1 | 98.6% | 95.1% | 98.5% | 99.4% | 89.8% | 88% | 89.4% | 82.9% | 85.7% | 96.4% | 54.2% | 82.5% | 93.9% | 93.9% | 83.7% | 84.3% | 88.3% | 87.4% | 79.5% | 84.2% | 77% | 76.6% | 96.7% | 96.3% | 85.2% | 90.9% | 94.1% | 86.2% | 95.2% | 90.1% | 94.2% | 77.3% | 70.3%
5 | Cc1cnc(Nc2cccc(CN3CCOCC3)c2)nc1Nc1cccc([S+](=O)([O-])NC(C)(C)C)c1 | 87.9% | 99.6% | 100% | 96.4% | 107% | 108% | 104% | 97.8% | 61.5% | 100% | 84.1% | 79.8% | 85.1% | 85.4% | 94.8% | 83.8% | 78.1% | 80.4% | 75.2% | 35.1% | 86.3% | 85.5% | 84% | 96.7% | 86.2% | 90.7% | 88% | 98.6% | 93.6% | 85.1% | 43.5% | 90.7% | 87.3%
6 | CN1CCC(CNc2ccc3ncc(-c4cccc(OC(F)(F)F)c4)n3n2)CC1 | 101% | 106% | 112% | 113% | 97.8% | 125% | 114% | 104% | 91% | 70.7% | 5.88% | 87.2% | 83.3% | 85.2% | 99.5% | 89.4% | 91.4% | 97.9% | 85.8% | 85.6% | 73.5% | 5.17% | 116% | 93.1% | 97.1% | 88.2% | 99.4% | 97.5% | 104% | 94.9% | 79.3% | 68.5% | 4.98%
7 | CC[C@H](C)C(=O)O[C@H]1C[C@@H](C)\C=C2\C=C/[C@H](C)[C@H](CC[C@@H]3C[C@@H](O)CC(=O)O3)[C@@H]12 | 95.9% | 103% | 100% | 108% | 96.3% | 92.8% | 90.6% | 89.9% | 93.3% | 69.4% | 53.5% | 87.5% | 89.1% | 89.7% | 98.9% | 83.5% | 90% | 88.4% | 80.5% | 86.8% | 77.1% | 71.4% | 80.3% | 93% | 84.6% | 97% | 91.7% | 91% | 91.3% | 82% | 90.7% | 77.4% | 54.9%
8 | COc1cc(N2CCC(N3CCN(C)CC3)CC2)ccc1Nc1ncc(Cl)c(Nc2ccccc2[S+](=O)([O-])C(C)C)n1 | 69.2% | 80% | 98.6% | 118% | 147% | 124% | 130% | 65.1% | 55.6% | 38.7% | 17.1% | 87.2% | 73.3% | 125% | 136% | 133% | 134% | 130% | 75.9% | 64.9% | 61.5% | 49.6% | 78.3% | 66.3% | 103% | 113% | 146% | 142% | 131% | 84.3% | 61.4% | 60.4% | 59.1%
9 | O=c1oc2cc(O)ccc2s1 | 109% | 128% | 120% | 107% | 114% | 110% | 110% | 95.8% | 101% | 110% | 90.3% | 109% | 117% | 130% | 108% | 105% | 116% | 108% | 108% | 115% | 102% | 98.3% | 98.1% | 116% | 117% | 119% | 103% | 104% | 112% | 105% | 101% | 107% | 109%
10 | COc1cccc(OC)c1-c1cc(C(=O)NC2(C(=O)O)C3CC4CC(C3)CC2C4)nn1-c1ccnc2cc(Cl)ccc12 (centres undefined) | 129% | 111% | 125% | 135% | 119% | 123% | 102% | 118% | 116% | 111% | 98.9% | 102% | 99.6% | 97.9% | 109% | 99.7% | 100% | 104% | 97.3% | 104% | 107% | 90.8% | 104% | 116% | 108% | 109% | 113% | 104% | 101% | 95.2% | 108% | 91% | 105%
11 | CCOc1cc(C(=O)Nc2ccc(Cl)c(-c3nc4ccccc4[nH]3)c2)cc(OCC)c1OCC | 79.3% | 104% | 101% | 102% | 104% | 108% | 105% | 115% | 107% | 116% | 63.3% | 72.8% | 90.6% | 81.9% | 92.8% | 93% | 90.3% | 83.5% | 83.2% | 88.2% | 98.1% | 59.1% | 83.8% | 84.3% | 104% | 84.6% | 84.6% | 90.3% | 87.3% | 95% | 109% | 101% | 50.1%
12 | Cc1ccc(C(=O)Nc2ccc([S+](=O)([O-])O)c3cc([S+](=O)([O-])O)cc([S+](=O)([O-])O)c23)cc1NC(=O)c1cccc(NC(=O)Nc2cccc(C(=O)Nc3cc(C(=O)Nc4ccc([S+](=O)([O-])O)c5cc([S+](=O)([O-])O)cc([S+](=O)([O-])O)c45)ccc3C)c2)c1 | 95.4% | 93.6% | 96.9% | 90.1% | 91.5% | 71.9% | 69.3% | 73.6% | 40.8% | 37.1% | 38.4% | 89.4% | 83.9% | 107% | 89.7% | 90.4% | 85.9% | 84.7% | 90.4% | 75.6% | 69% | 62.2% | 91.9% | 91% | 93.1% | 101% | 76.9% | 85.8% | 87.6% | 88.9% | 76.9% | 56.3% | 52.5%
13 | CCC(=O)O[C@@]1(CC[C@H]2[C@@H]3CCC/4=C/C(=O)CC[C@]4(C)[C@H]3CC[C@]12C)C(=O)CO | 75.8% | 115% | 103% | 111% | 119% | 128% | 106% | 140% | 108% | 85.4% | 78.7% | 109% | 112% | 106% | 111% | 107% | 118% | 115% | 104% | 104% | 108% | 103% | 107% | 103% | 102% | 119% | 124% | 122% | 124% | 129% | 128% | 86.1% | 83.3%
